Assay [1] is described as follows: Antiproliferative activity against human HCT116 cells expressing wild type p53 assessed as growth inhibition after 72 hrs by MTT assay. Type of assay: functional, cell-based. The following applies: HCT-116, 72 h. A general note: Tetrazolium assays rely on reduction of a dye to a coloured formazan, in cell work by metabolically active cells.
A short description of assay [2]: Antiproliferative activity against human p53-null HCT116 cells assessed as growth inhibition after 72 hrs by MTT assay. Type of assay: functional, cell-based. The following applies: HCT-116, 72 h.
A further assay deals with MCF7. In words: Antiproliferative activity against human MCF7 cells assessed as growth inhibition after 72 hrs by MTT assay. Type of assay: functional, cell-based. The note with it: MCF7, 72 h.
A short description of assay [3]: Antiproliferative activity against human MDA-MB-435S cells assessed as growth inhibition after 72 hrs by MTT assay. Type of assay: functional, cell-based.
The target in assay [4] is Hypoxia-inducible factor 1-alpha (Homo sapiens) (UniProt Q16665). In words: Inhibition of HIF-1 (unknown origin) expressed in human MCF7 cells co-transfected with hypoxia reporter plasmid p(HRE)3-Luc at 20 uM measured under hypoxia condition after 24 hrs by dual-luciferase reporter assay. Type of assay: cell-based. For orientation: A reporter such as luciferase makes a cellular process visible.

Assay [5] can be described thus: Decrease in procaspase-3 expression level in human p53-null HCT116 -/- cells at 10 uM after 24 hrs by western blot analysis. Type of assay: functional, cell-based. The following applies: HCT-116. (In general: A western blot detects proteins with antibodies after separation by electrophoresis.)
The nature of assay [6]: Decrease in procaspase-9 expression level in human p53-null HCT116 -/- cells at 10 uM after 24 hrs by western blot analysis. Type of assay: functional, cell-based. The note with it: HCT-116.

Structures are written as SMILES. Activity calls are given as the source filed them. The calls are words filed in the database; no cut-off is given here.

Chain of Hypoxia-inducible factor 1-alpha (Homo sapiens) (Q16665 whole entry, looked up): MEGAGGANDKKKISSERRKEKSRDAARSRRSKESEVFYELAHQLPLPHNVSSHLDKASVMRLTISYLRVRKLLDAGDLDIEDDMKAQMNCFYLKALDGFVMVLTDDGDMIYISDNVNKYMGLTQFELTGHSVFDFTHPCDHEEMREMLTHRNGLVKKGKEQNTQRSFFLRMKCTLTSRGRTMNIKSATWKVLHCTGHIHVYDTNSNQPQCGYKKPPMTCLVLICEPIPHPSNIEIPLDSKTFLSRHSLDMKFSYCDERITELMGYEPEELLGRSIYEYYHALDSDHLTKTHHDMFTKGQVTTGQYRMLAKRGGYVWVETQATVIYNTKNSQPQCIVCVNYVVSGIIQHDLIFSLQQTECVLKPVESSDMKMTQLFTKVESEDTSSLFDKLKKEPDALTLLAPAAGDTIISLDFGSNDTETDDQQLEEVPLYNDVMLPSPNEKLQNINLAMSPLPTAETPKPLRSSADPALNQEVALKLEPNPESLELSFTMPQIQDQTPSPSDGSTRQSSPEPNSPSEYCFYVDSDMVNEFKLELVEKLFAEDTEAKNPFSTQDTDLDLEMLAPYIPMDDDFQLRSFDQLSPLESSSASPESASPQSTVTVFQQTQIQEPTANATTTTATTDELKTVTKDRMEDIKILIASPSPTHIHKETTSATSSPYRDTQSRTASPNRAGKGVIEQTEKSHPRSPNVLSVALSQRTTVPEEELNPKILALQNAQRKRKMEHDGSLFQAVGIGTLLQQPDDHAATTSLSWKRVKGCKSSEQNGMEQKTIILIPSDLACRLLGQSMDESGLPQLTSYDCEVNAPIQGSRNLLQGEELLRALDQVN

For the molecule `CCOC(=O)c1oc2ccc(N(Cc3ccccc3)S(=O)(=O)c3ccc(C)cc3)cc2c1C`, the IC50 in assay [1] and in assay [2] was above 40 µM throughout.
As to `CCOC(=O)c1oc2ccc(N(Cc3ccccc3)S(=O)(=O)c3ccc(F)cc3)cc2c1C`, the half-inhibitory concentration (IC50) (as a rule, the concentration needed to halve the response being measured) turned out to be 5.82 µM in assay [1] and 33.1 µM in assay [2].
For the molecule `Cc1c(C(=O)O)oc2ccc(N(Cc3ccc(Br)cc3)S(=O)(=O)c3ccc(Br)cc3)cc12`, the half-inhibitory concentration (IC50) is 8.58 µM in assay [1] and above 40 µM in assay [2].
`Cc1c(C(=O)NCCN(C)C)oc2ccc(N(Cc3ccccc3)S(=O)(=O)c3ccc(Cl)cc3)cc12`: the concentration for half-maximal inhibition (IC50) was found to be 7.06 µM in assay [1], 6.31 µM in assay [2], 6.72 µM in the assay on MCF7 and 9.24 µM in assay [3]. The inhibition (commonly the percentage by which the read-out fell short of the control) in assay [4] was below 10%.
In the case of `Cc1c(C(=O)O)oc2ccc(N(Cc3ccccc3)S(=O)(=O)c3ccc(Cl)cc3)cc12`, the half-maximal inhibitory concentration (IC50) was 9.13 µM in assay [1] and 33.4 µM in assay [2].
As for `Cc1c(C(=O)O)oc2ccc(N(Cc3ccccc3)S(=O)(=O)c3ccc(F)cc3)cc12`, the IC50 in assay [1] and in assay [2] was above 40 µM throughout.
For the molecule `Cc1c(C(=O)O)oc2ccc(N(Cc3ccccc3)S(=O)(=O)c3ccc(Br)cc3)cc12`, the IC50 in assay [1] was found to be 7.09 µM; in assay [2], 20 µM.
Take `CCOC(=O)c1oc2ccc(N(Cc3ccc(Br)cc3)S(=O)(=O)c3ccc(Br)cc3)cc2c1C`: the IC50 in assay [1] came out at 10.9 µM; in assay [2], 5.22 µM.
On to `Cc1c(C(=O)NCCCn2ccnc2)oc2ccc(N(Cc3ccccc3)S(=O)(=O)c3ccc(Cl)cc3)cc12`, for which the 50% inhibitory concentration (IC50) is 17.1 µM in assay [1], 5 µM in assay [2], 31.8 µM in the assay with MCF7 and 5.6 µM in assay [3]. This molecule also had an inhibition in assay [4] of 32.3%.
As for `CCOC(=O)c1oc2ccc(NS(=O)(=O)c3ccc(F)cc3)cc2c1C`, the concentration for half-maximal inhibition (IC50) in assay [1] is 10.5 µM; in assay [2], above 40 µM.
With `CCOC(=O)c1oc2ccc(NS(=O)(=O)c3ccc(Br)cc3)cc2c1C`, the IC50 in assay [1] was 9.31 µM; in assay [2], above 40 µM.
For the molecule `CCOC(=O)c1oc2ccc(N(Cc3ccccc3)S(=O)(=O)c3cccc(Cl)c3)cc2c1C`, the IC50 in assay [1] and in assay [2] was above 40 µM in each case.
Regarding `CCOC(=O)c1oc2ccc(N(Cc3ccccc3)S(=O)(=O)c3ccc(C(F)(F)F)cc3)cc2c1C`, the IC50 in assay [1] came to 26.7 µM; in assay [2], 12.7 µM.
In the case of `CCOC(=O)c1oc2ccc(N(Cc3ccccc3)S(=O)(=O)c3ccccc3Br)cc2c1C`, the 50% inhibitory concentration (IC50) in assay [1] and in assay [2] was above 40 µM in each case.
Consider `CCOC(=O)c1oc2ccc(N(Cc3ccccc3)S(=O)(=O)c3ccc(OC)cc3)cc2c1C`, for which the IC50 in assay [1] and in assay [2] was above 40 µM in each case.
Consider `CCOC(=O)c1oc2ccc(N(Cc3ccccc3)S(=O)(=O)c3cccc(Br)c3)cc2c1C`, for which the IC50 in assay [1] and in assay [2] was above 40 µM in each case.
For the molecule `COc1ccc(N(Cc2ccccc2)S(=O)(=O)c2ccc(Cl)cc2)cc1`, the IC50 in assay [1] was 18.3 µM; in assay [2], above 40 µM.
`Cc1c(C(=O)NCCCn2ccnc2)oc2ccc(N(Cc3ccc(Cl)cc3)S(=O)(=O)c3ccc(Cl)cc3)cc12`: the IC50 in assay [1] was 2.43 µM; in assay [2], 1.89 µM; in the assay with MCF7 it was above 40 µM; in assay [3] it was 7.25 µM. The molecule also returned an inhibition in assay [4] of 27%.
Consider `CCOC(=O)c1oc2ccc(NS(=O)(=O)c3ccc(Cl)cc3)cc2c1C`, for which the IC50 in assay [1] was 24.3 µM; in assay [2] it was above 40 µM.
Turning to `CCOC(=O)c1oc2ccc(N(CC3CCCCC3)S(=O)(=O)c3ccc(Cl)cc3)cc2c1C`, the 50% inhibitory concentration (IC50) in assay [1] is 14.1 µM; in assay [2], above 40 µM.
With `CCOC(=O)c1oc2ccc(N(Cc3ccccc3)S(=O)(=O)c3ccc(Br)cc3)cc2c1C`, the concentration for half-maximal inhibition (IC50) in assay [1] stood at 9.46 µM; in assay [2] it was 8.7 µM.
Take `CCOC(=O)c1oc2ccc(N(Cc3ccccc3)S(=O)(=O)c3ccc(Cl)cc3)cc2c1C`: the half-maximal inhibitory concentration (IC50) was 4.86 µM in assay [1] and 23.2 µM in assay [2].
With `COc1ccc(C2=N[C@@H](c3ccc(Cl)cc3)[C@@H](c3ccc(Cl)cc3)N2C(=O)N2CCNC(=O)C2)c(OC(C)C)c1` [NUTLIN-3], the IC50 is 5.21 µM in assay [1], 21.5 µM in assay [2], 5.01 µM in the assay on MCF7 and 29.6 µM in assay [3]. In assay [4], this molecule registered an inhibition below 10%. The inhibition result in assay [5] and in assay [6] was “inactive” in each case.
Consider `Cc1c(C(=O)NCCN(C)C)oc2ccc(N(Cc3ccc(Cl)cc3)S(=O)(=O)c3ccc(Cl)cc3)cc12`, for which the concentration for half-maximal inhibition (IC50) is 5.38 µM in assay [1], 3.87 µM in assay [2], 5.84 µM in the assay with MCF7 and 10.8 µM in assay [3]. In assay [4], the inhibition came out at 12.7%.
As to `CCOC(=O)c1oc2ccc(N(Cc3ccccc3)S(=O)(=O)c3ccccc3)cc2c1C`, the IC50 in assay [1] and in assay [2] was above 40 µM throughout.
With `CCOC(=O)c1oc2ccc(N(Cc3ccc(Cl)cc3)S(=O)(=O)c3ccc(Cl)cc3)cc2c1C`, the IC50 in assay [1] worked out at 9.48 µM; in assay [2] it was 9.64 µM.
Taken in the same sequence, the figures for `CCOC(=O)c1oc2ccc(N(C(C)C)S(=O)(=O)c3ccc(Cl)cc3)cc2c1C` were 7.83 µM and above 40 µM.
For `CCOC(=O)c1oc2ccc(N(Cc3ccccc3)S(=O)(=O)c3ccc([N+](=O)[O-])cc3)cc2c1C`, in that order: above 40 µM and above 40 µM.
`Cc1c(C(=O)O)oc2ccc(N(Cc3ccc(Cl)cc3)S(=O)(=O)c3ccc(Cl)cc3)cc12`: the half-inhibitory concentration (IC50) in assay [1] is 3.67 µM; in assay [2], 27.2 µM.
As to `CCOC(=O)c1oc2ccc(NS(=O)(=O)c3ccc(C(F)(F)F)cc3)cc2c1C`, the half-maximal inhibitory concentration (IC50) in assay [1] came out at 5.03 µM; in assay [2] it was 24.2 µM.
`Cc1c(C(=O)O)oc2ccc(N(Cc3ccccc3)S(=O)(=O)c3ccc(C(F)(F)F)cc3)cc12`: the half-inhibitory concentration (IC50) was 4.13 µM in assay [1] and 21.1 µM in assay [2].

The values above are taken from ChEMBL document CHEMBL3804813, “Discovery and optimization of new benzofuran derivatives against p53-independent malignant cancer cells through inhibition of HIF-1 pathway” (Bioorg Med Chem Lett, 2016).
